Test results from PMC4170656 (Developmental cell, 2014).
Numbering of substitutions follows the chain as printed.

Assays:
Assay type in all cases: binding
[1] = target: T1, His:ARD (ankyrin repeat domain of AKR2A) (Arabidopsis thaliana, UniProt Q9SAR5, Y294A); test: SPR sensorgrams, lipid vesicles on L1 chip; details: POPG/POPC (50:50) vesicles; pH 7.4, 0.16 M NaCl, 23°C; L2 site
T1 sequence (Q9SAR5 211-342 Y294A): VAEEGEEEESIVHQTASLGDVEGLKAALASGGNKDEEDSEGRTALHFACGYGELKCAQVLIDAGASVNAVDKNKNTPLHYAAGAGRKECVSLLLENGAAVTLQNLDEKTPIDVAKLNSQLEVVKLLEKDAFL

[2] = target: T2, His:ARD (ankyrin repeat domain of AKR2A) (Arabidopsis thaliana, UniProt Q9SAR5, N314A); test: SPR sensorgrams, lipid vesicles on L1 chip; details: POPG/POPC (50:50) vesicles; pH 7.4, 0.16 M NaCl, 23°C; L3 site
T2 sequence (Q9SAR5 211-342 N314A): T1 sequence (Q9SAR5 211-342 Y294A) with A84Y, N104A

[3] = target: T3, His:ARD (ankyrin repeat domain of AKR2A) (Arabidopsis thaliana, UniProt Q9SAR5, E246A); test: SPR sensorgrams, lipid vesicles on L1 chip; details: POPG/POPC (50:50) vesicles; pH 7.4, 0.16 M NaCl, 23°C; L1 site
T3 sequence (Q9SAR5 211-342 E246A): T1 sequence (Q9SAR5 211-342 Y294A) with E36A, A84Y

[4] = target: T4, His:AKR2A (full-length AKR2A) (Arabidopsis thaliana, UniProt Q9SAR5); test: SPR, lipid vesicles on L1 chip; details: POPG/POPC/MGDG [50:(50−x):x] vesicles; pH 7.4, 0.16 M NaCl, 23°C
T4 sequence (Q9SAR5 1-342): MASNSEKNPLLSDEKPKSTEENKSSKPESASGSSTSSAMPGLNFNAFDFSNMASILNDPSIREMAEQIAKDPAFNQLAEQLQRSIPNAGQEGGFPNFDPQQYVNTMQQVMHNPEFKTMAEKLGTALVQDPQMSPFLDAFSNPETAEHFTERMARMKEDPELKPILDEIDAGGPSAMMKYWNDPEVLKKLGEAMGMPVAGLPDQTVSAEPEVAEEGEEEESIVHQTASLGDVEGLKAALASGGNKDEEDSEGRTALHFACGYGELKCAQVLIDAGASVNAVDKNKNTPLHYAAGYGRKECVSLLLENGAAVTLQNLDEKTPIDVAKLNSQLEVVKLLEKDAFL

[5] = target: T5, His:ARD (ankyrin repeat domain of AKR2A) (Arabidopsis thaliana, UniProt Q9SAR5, H223A); test: SPR sensorgrams, lipid vesicles on L1 chip; details: POPG/POPC (50:50) vesicles; pH 7.4, 0.16 M NaCl, 23°C; L1 site
T5 sequence (Q9SAR5 211-342 H223A): T1 sequence (Q9SAR5 211-342 Y294A) with H13A, A84Y

[6] = target: T6, His:ARD (ankyrin repeat domain of AKR2A) (Arabidopsis thaliana, UniProt Q9SAR5, L315A); test: SPR sensorgrams, lipid vesicles on L1 chip; details: POPG/POPC (50:50) vesicles; pH 7.4, 0.16 M NaCl, 23°C; L3 site
T6 sequence (Q9SAR5 211-342 L315A): T1 sequence (Q9SAR5 211-342 Y294A) with A84Y, L105A

[7] = target: T7, His:ARD (ankyrin repeat domain of AKR2A) (Arabidopsis thaliana, UniProt Q9SAR5, R296A); test: SPR sensorgrams, lipid vesicles on L1 chip; details: POPG/POPC (50:50) vesicles; pH 7.4, 0.16 M NaCl, 23°C; L2 site
T7 sequence (Q9SAR5 211-342 R296A): T1 sequence (Q9SAR5 211-342 Y294A) with A84Y, R86A

Compound: CCCCCCCC/C=C\CCCCCCCC(=O)O[C@H](COC(=O)CCCCCCCCCCCCCCC)COP(=O)(O)OCC(O)CO (stereo partly shown) [POPG]
- SPR sensorgrams, lipid vesicles on L1 chip [1]: the L2 site mutants (Y294A and R296A) showed significantly lower binding than WT
- SPR sensorgrams, lipid vesicles on L1 chip [2]: the L3 site mutants (N314A and L315A) showed only modestly reduced binding
- SPR sensorgrams, lipid vesicles on L1 chip [3]: The L1 site mutants H223A and E246A also had a significantly lower binding affinity
- SPR, lipid vesicles on L1 chip [4]: MGDG-dependent vesicle binding of full-length (FL) AKR2A (red) and ARD (blue)
- SPR sensorgrams, lipid vesicles on L1 chip [5]: The L1 site mutants H223A and E246A also had a significantly lower binding affinity
- SPR sensorgrams, lipid vesicles on L1 chip [6]: the L3 site mutants (N314A and L315A) showed only modestly reduced binding
- SPR sensorgrams, lipid vesicles on L1 chip [7]: the L2 site mutants (Y294A and R296A) showed significantly lower binding than WT
